Source: ChEMBL document CHEMBL4610120, “New Broad-Spectrum Antibiotics Containing a Pyrrolobenzodiazepine Ring with Activity against Multidrug-Resistant Gram-Negative Bacteria” (J Med Chem, 2020)
≈ marks a conversion by molar mass, not a printed value. Calls of active or inactive are those of the source. The rule behind the calls is not given here.

Key:
[1] = Ratio of MIC for Pseudomonas aeruginosa PAO1 to MIC for Pseudomonas aeruginosa harboring MexCD mutant; type: functional
Acinetobacter baumannii [2] = assay: Bactericidal activity against Acinetobacter baumannii AYE assessed as reduction in viable bacterial count at 4 times MIC measured after 24 hrs by Miles-Misra dilution method based time-kill assay; type: functional, organism-based
Acinetobacter baumannii [3] = assay: Ratio of MIC for multidrug-resistant Acinetobacter baumannii AYE to MIC for multidrug-resistant Acinetobacter baumannii AYE in presence of efflux pump inhibitor PAbetaN; type: functional
Acinetobacter baumannii [4] = assay: Bactericidal activity against Acinetobacter baumannii ATCC 17978 assessed as reduction in viable bacterial count at 4 times MIC measured up to 24 hrs by Miles-Misra dilution method based time-kill assay; type: functional, organism-based
Acinetobacter baumannii [5] = assay: Antimicrobial activity against Acinetobacter baumannii ATCC 17978 in presence of efflux pump inhibitor CCCP by microdilution broth method; type: functional
Acinetobacter baumannii [6] = assay: Antimicrobial activity against Acinetobacter baumannii ATCC 17978 assessed as mutation frequency at 4 times MIC measured after 48 hrs; type: functional
Staphylococcus aureus = assay: Antibacterial activity against methicillin sensitive Staphylococcus aureus NCTC 6571 by microdilution broth method; type: functional
Acinetobacter baumannii [7] = assay: Bactericidal activity against Acinetobacter baumannii NCTC 13424 assessed as reduction in viable bacterial count at 4 times MIC measured after 24 hrs by Miles-Misra dilution method based time-kill assay; type: functional, organism-based
Klebsiella pneumoniae [8] = assay: Antimicrobial activity against Klebsiella pneumoniae M6 assessed as mutation frequency at 4 times MIC measured after 48 hrs; type: functional
Klebsiella pneumoniae [9] = assay: Bactericidal activity against multidrug-resistant Klebsiella pneumoniae NCTC 13438 assessed as viable bacterial count at 4 times MIC measured after 4 to 24 hrs by Miles-Misra dilution method based time-kill assay; type: functional, organism-based
Acinetobacter baumannii [10] = assay: Ratio of MIC for multidrug-resistant Acinetobacter baumannii AYE to MIC for multidrug-resistant Acinetobacter baumannii AYE in presence of efflux pump inhibitor CCCP; type: functional
Klebsiella pneumoniae [11] = assay: Bactericidal activity against multidrug-resistant Klebsiella pneumoniae NCTC 13368 assessed as viable bacterial count at 4 times MIC measured after 4 to 24 hrs by Miles-Misra dilution method based time-kill assay; type: functional, organism-based
Klebsiella pneumoniae [12] = assay: Bactericidal activity against multidrug-resistant Klebsiella pneumoniae 16 assessed as viable bacterial count at 4 times MIC measured after 4 to 24 hrs by Miles-Misra dilution method based time-kill assay; type: functional, organism-based
Klebsiella pneumoniae [13] = assay: Antibacterial activity against multidrug-resistant Klebsiella pneumoniae NCTC 13368-7-R1 measured after 10 passages in presence of efflux pump inhibitor PAbetaN by microdilution broth method; type: functional
Klebsiella pneumoniae [14] = assay: Antimicrobial activity against multidrug-resistant Klebsiella pneumoniae NCTC 13368 by microdilution broth method; type: functional
Klebsiella pneumoniae [15] = assay: Antimicrobial activity against multidrug-resistant Klebsiella pneumoniae NCTC 13438 in presence of efflux pump inhibitor CCCP by microdilution broth method; type: functional
Klebsiella pneumoniae [16] = assay: Antibacterial activity against multidrug-resistant Klebsiella pneumoniae NCTC 13368-7-R2 measured after 10 passages in presence of membrane permeabilizer PMBN by microdilution broth method; type: functional
Acinetobacter baumannii [17] = assay: Antimicrobial activity against multidrug-resistant Acinetobacter baumannii UKA7 by microdilution broth method; type: functional
Acinetobacter baumannii [18] = assay: Antimicrobial activity against multidrug-resistant Acinetobacter baumannii UKA2 by microdilution broth method; type: functional
Pseudomonas aeruginosa [19] = assay: Antimicrobial activity against multidrug-resistant Pseudomonas aeruginosa NCTC 13437 by microdilution broth method; type: functional
Klebsiella pneumoniae [20] = assay: Bactericidal activity against multidrug-resistant Klebsiella pneumoniae NCTC 13368 assessed as reduction in viable bacterial count at 4 times MIC measured after 24 hrs by Miles-Misra dilution method based time-kill assay; type: functional, organism-based
Klebsiella pneumoniae [21] = assay: Antibacterial activity against multidrug-resistant Klebsiella pneumoniae NCTC 13368-7-R2 measured after 10 passages in presence of efflux pump inhibitor CCCP by microdilution broth method; type: functional
Acinetobacter baumannii [22] = assay: Antimicrobial activity against multidrug-resistant Acinetobacter baumannii W1 by microdilution broth method; type: functional
Klebsiella pneumoniae [23] = assay: Ratio of MIC for multidrug-resistant Klebsiella pneumoniae NCTC 13368-7-R2 measured after 10 passages to MIC for multidrug-resistant Klebsiella pneumoniae NCTC 13368-7-R2 measured after 10 passages in presence of efflux pump inhibitor PAbetaN; type: functional
Klebsiella pneumoniae [24] = assay: Ratio of MIC for multidrug-resistant Klebsiella pneumoniae NCTC 13368-7-R1 measured after 10 passages to MIC for multidrug-resistant Klebsiella pneumoniae NCTC 13368-7-R1 measured after 10 passages in presence of efflux pump inhibitor PAbetaN; type: functional
Klebsiella pneumoniae [25] = assay: Ratio of MIC for multidrug-resistant Klebsiella pneumoniae NCTC 13368 to MIC for multidrug-resistant Klebsiella pneumoniae NCTC 13368 in presence of membrane permeabilizer PMBN; type: functional
Klebsiella pneumoniae [26] = assay: Antibacterial activity against multidrug-resistant Klebsiella pneumoniae NCTC 13368-7-R1 measured after 10 passages in presence of membrane permeabilizer PMBN by microdilution broth method; type: functional
Klebsiella pneumoniae [27] = assay: Antibacterial activity against multidrug-resistant Klebsiella pneumoniae NCTC 13368-7-R1 measured after 10 passages by microdilution broth method; type: functional
Acinetobacter baumannii [28] = assay: Antimicrobial activity against multidrug-resistant Acinetobacter baumannii NCTC 13302 by microdilution broth method; type: functional
Klebsiella pneumoniae [29] = assay: Ratio of MIC for multidrug-resistant Klebsiella pneumoniae NCTC 13368-7-R2 measured after 10 passages to MIC for multidrug-resistant Klebsiella pneumoniae NCTC 13368-7-R2 measured after 10 passages in presence of membrane permeabilizer PMBN; type: functional
Pseudomonas aeruginosa [30] = assay: Antimicrobial activity against multidrug-resistant Pseudomonas aeruginosa NCTC 13437 in presence of membrane permeabilizer PMBN by microdilution broth method; type: functional
Klebsiella pneumoniae [31] = assay: Antibacterial activity against multidrug-resistant Klebsiella pneumoniae NCTC 13368-7-R2 measured after 10 passages by microdilution broth method; type: functional
Klebsiella pneumoniae [32] = assay: Ratio of MIC for multidrug-resistant Klebsiella pneumoniae NCTC 13368-7-R1 measured after 10 passages to MIC for multidrug-resistant Klebsiella pneumoniae NCTC 13368-7-R1 measured after 10 passages in presence of membrane permeabilizer PMBN; type: functional
Klebsiella pneumoniae [33] = assay: Antibacterial activity against multidrug-resistant Klebsiella pneumoniae NCTC 13368-7-R2 measured after 10 passages in presence of efflux pump inhibitor PAbetaN by microdilution broth method; type: functional
Acinetobacter baumannii [34] = assay: Antimicrobial activity against multidrug-resistant Acinetobacter baumannii NCTC 13424 by microdilution broth method; type: functional
Acinetobacter baumannii [35] = assay: Bactericidal activity against Acinetobacter baumannii AYE assessed as reduction in viable bacterial count at 4 times MIC measured up to 24 hrs by Miles-Misra dilution method based time-kill assay; type: functional, organism-based
Klebsiella pneumoniae [36] = assay: Bactericidal activity against multidrug-resistant Klebsiella pneumoniae NCTC 13368 assessed as reduction in viable bacterial count at 4 times MIC measured after 6 hrs by Miles-Misra dilution method based time-kill assay; type: functional, organism-based
Klebsiella pneumoniae [37] = assay: Antimicrobial activity against Klebsiella pneumoniae M6 by microdilution broth method; type: functional
Klebsiella pneumoniae [38] = assay: Antimicrobial activity against multidrug-resistant Klebsiella pneumoniae NCTC 13368 in presence of membrane permeabilizer PMBN by microdilution broth method; type: functional
Klebsiella pneumoniae [39] = assay: Bactericidal activity against multidrug-resistant Klebsiella pneumoniae NCTC 13438 assessed as reduction in viable bacterial count at 4 times MIC measured up to 24 hrs by Miles-Misra dilution method based time-kill assay; type: functional, organism-based

COc1cc2c(cc1OCCCC(=O)Nc1cc(C(=O)Nc3ccc4sc(C(=O)N(C)C)cc4c3)n(C)c1)N=C[C@@H]1CCCN1C2=O
Ratio [1]: > 4 | Activity (Acinetobacter baumannii [2]): inactive | Ratio (Acinetobacter baumannii [3]): 4 | Activity (Acinetobacter baumannii [4]): Active | MIC (Acinetobacter baumannii [5]): 0.25 µg/mL | Activity (Acinetobacter baumannii [6]): <1.5 ×10⁻⁸ No_unit | MIC (Staphylococcus aureus): 0.03 µg/mL (≈ 0.0457 µM) | Activity (Acinetobacter baumannii [7]): inactive | Activity (Klebsiella pneumoniae [8]): 1 ×10⁻⁶ No_unit | Activity (Klebsiella pneumoniae [9]): Below limit of detection | Ratio (Acinetobacter baumannii [10]): 4 | Activity (Klebsiella pneumoniae [11]): Below limit of detection | Activity (Klebsiella pneumoniae [12]): Below limit of detection

COc1cc2c(cc1OCCCC(=O)Nc1cc(C(=O)Nc3ccc4oc(C(=O)N5CCSCC5)cc4c3)n(C)c1)N=C[C@@H]1CCCN1C2=O
MIC (Klebsiella pneumoniae [13]): 32 µg/mL | MIC (Klebsiella pneumoniae [14]): 32 µg/mL (≈ 45.8 µM) | MIC (Klebsiella pneumoniae [15]): 4 µg/mL | MIC (Klebsiella pneumoniae [16]): 64 µg/mL | MIC (Acinetobacter baumannii [17]): 4 µg/mL (≈ 5.72 µM) | MIC (Acinetobacter baumannii [18]): 4 µg/mL (≈ 5.72 µM) | MIC (Pseudomonas aeruginosa [19]): > 32 µg/mL | Activity (Klebsiella pneumoniae [20]): inactive | MIC (Klebsiella pneumoniae [21]): > 128 µg/mL | MIC (Acinetobacter baumannii [22]): 4 µg/mL (≈ 5.72 µM) | Ratio (Klebsiella pneumoniae [23]): 4 | Ratio (Klebsiella pneumoniae [24]): 4 | Ratio (Klebsiella pneumoniae [25]): 4 | MIC (Klebsiella pneumoniae [26]): 8 µg/mL | MIC (Klebsiella pneumoniae [27]): 128 µg/mL (≈ 183 µM) | MIC (Acinetobacter baumannii [28]): 4 µg/mL (≈ 5.72 µM) | Ratio (Klebsiella pneumoniae [29]): 4 | MIC (Pseudomonas aeruginosa [30]): 2 to 32 µg/mL | MIC (Klebsiella pneumoniae [31]): > 128 µg/mL | Ratio (Klebsiella pneumoniae [32]): 4 | MIC (Klebsiella pneumoniae [33]): 128 µg/mL | MIC (Acinetobacter baumannii [34]): 1 to 2 µg/mL (≈ 1.43 to 2.86 µM) | Activity (Acinetobacter baumannii [35]): Active | Activity (Klebsiella pneumoniae [36]): Active | MIC (Klebsiella pneumoniae [37]): 1 µg/mL (≈ 1.43 µM) | MIC (Klebsiella pneumoniae [38]): 8 µg/mL | Activity (Klebsiella pneumoniae [39]): Active
